How the values were obtained:
Type in all cases: biochemical
[1] = target: T1, PDE8A (Homo sapiens, UniProt O60658); assay: PDE enzyme assay using [3H]cAMP as substrate, PDE8A; settings: [3H]cAMP 47 nM; enzyme 0.06 nM; read-out: IC50 (nM) of Example 1, PDE8A
T1 construct: full-length human PDE8A (NP_002596.1); Flag (N); made in house; host or cells: Sf9 (baculovirus, pFastBac1)
Source text: (§1) The nucleotide sequences encoding full-length human PDE1A (NP_001003683.1), PDE1C (NP_005011.1), PDE5A (NP_001074.2), PDE7B (NP_061818.1) and PDE9A (NP_002597.1) are inserted into pFastBac1 (Invitrogen) vector with an N-terminal HIS tag. The nucleotide sequences encoding full-length human PDE4D (NP_006194.2) and catalytic domain (residue 641-1141) of PDE3A (NP_000912.3) are inserted into pFastBac1 (Invitrogen) vector with a C-terminal HIS tag. The nucleotide sequences encoding full-length human PDE8A (NP_002596.1) and PDE11A (AAI12394.1) are inserted into pFastBac1 (Invitrogen) vector with an N-terminal Flag tag. The nucleotide sequences encoding full-length human PDE10A (AAD32595.1) are inserted into pFastBac1 (Invitrogen) vector with a C-terminal Flag-His tag. […]
(§2) All 3′, 5′ cyclic nucleotide phosphodiesterase (PDE) enzyme activities are measured with a radiometric enzyme assay based on SPA detection system (scintillation proximity assay). […] Samples are read 12 hours later in a MICROBETA™ TRILUX® Counter. […] IC50 values are calculated by plotting the normalized data vs. log [compound] and fitting the data using a four parameter logistic equation.
(§3) The following phosphodiesterase activities are measured using [^3H]cAMP as reaction substrate: PDE3A (catalytic domain), PDE4D, PDE7B and PDE8A. […]

[2] = target: T2, PDE6AB (PDE6A/6B dimer) (Homo sapiens, UniProt P16499+P35913); assay: PDE enzyme assay using [3H]cGMP as substrate, PDE6AB; settings: [3H]cGMP 80 nM; enzyme 5 nM; read-out: IC50 (nM) of Example 1, PDE 6AB
T2 construct: full-length human PDE6A (NP_000431.2); full-length human PDE6A (NP_000431.2) and PDE6B (AAH00249.1); His (N); Flag (N); made in house; host or cells: Sf9 (baculovirus, pFastBacDual)
Source text: as §1, §2
(§4) The following phosphodiesterase activities are measured using [^3H]cGMP as reaction substrate: PDE2A, PDE5A, PDE6A/6B, PDE9A, PDE10A and PDE11A. […]

[3] = target: T3, PDE1A (Homo sapiens, UniProt P54750); assay: Ca2+-calmodulin dependent PDE enzyme assay (SPA), PDE1A; settings: [3H]cAMP 47 nM; enzyme 0.25 nM; Ca2+/calmodulin buffer pH 7.5; read-out: IC50 (nM) of Example 1, PDE 1A
T3 construct: full-length human PDE1A (NP_001003683.1); His (N); made in house; host or cells: Sf9 (baculovirus, pFastBac1)
Source text: (§5) The nucleotide sequences encoding full-length human PDE1A (NP_001003683.1), PDE1C (NP_005011.1), PDE5A (NP_001074.2), PDE7B (NP_061818.1) and PDE9A (NP_002597.1) are inserted into pFastBac1 (Invitrogen) vector with an N-terminal HIS tag. The nucleotide sequences encoding full-length human PDE4D (NP_006194.2) and catalytic domain (residue 641-1141) of PDE3A (NP_000912.3) are inserted into pFastBac1 (Invitrogen) vector with a C-terminal HIS tag. The nucleotide sequences encoding full-length human PDE8A (NP_002596.1) and PDE11A (AAI12394.1) are inserted into pFastBac1 (Invitrogen) vector with an N-terminal Flag tag. The nucleotide sequences encoding full-length human PDE10A (AAD32595.1) are inserted into pFastBac1 (Invitrogen) vector with a C-terminal Flag-His tag. The nucleotide sequences encoding full-length human PDE6A (NP_000431.2) and PDE6B (AAH00249.1) are inserted into pFastBacDual (Invitrogen) vector with an N-terminal HIS tag and N-terminal Flag tag, respectively, for production of PDE6A/6B dimer. […]
as §2, with “equation. […]” for “equation.”

[4] = target: T4, PDE10A (Homo sapiens, UniProt Q9Y233); assay: PDE enzyme assay using [3H]cGMP as substrate, PDE10A; settings: [3H]cGMP 80 nM; enzyme 0.03 nM; read-out: IC50 (nM) of Example 1, PDE10A
T4 construct: full-length human PDE10A (AAD32595.1); Flag-His (C); made in house; host or cells: Sf9 (baculovirus, pFastBac1)
Source text: as §1, §2, §4

[5] = target: T5, PDE1C (Homo sapiens, UniProt Q14123); assay: Ca2+-calmodulin dependent PDE enzyme assay (SPA), PDE1C; settings: [3H]cAMP 47 nM; enzyme 0.0012 nM; Ca2+/calmodulin buffer pH 7.5; read-out: IC50 (nM) of Example 1, PDE 1C
T5 construct: full-length human PDE1A (NP_001003683.1), PDE1C (NP_005011.1); His (N); made in house; host or cells: Sf9 (baculovirus, pFastBac1)
Source text: as §5
as §2, with “equation. […]” for “equation.”

[6] = target: T6, PDE2A (Homo sapiens, UniProt O00408); assay: PDE enzyme assay using [3H]cGMP as substrate, PDE2A; settings: [3H]cGMP 80 nM; enzyme 0.2 nM; read-out: IC50 (nM) of Example 1, PDE2A
T6 construct: full-length human PDE1B (NP_000915.1) and PDE2A (NP_002590.1); His (C); made in house; host or cells: Sf9 (pIEX4)
Source text: as §1, §2, §4

[7] = target: T7, PDE11A (Homo sapiens, UniProt Q9HCR9); assay: PDE enzyme assay using [3H]cGMP as substrate, PDE11A; settings: [3H]cGMP 80 nM; enzyme 0.03 nM; read-out: IC50 (nM) of Example 1, PDE11A
T7 construct: full-length human PDE8A (NP_002596.1) and PDE11A (AAI12394.1); Flag (N); made in house; host or cells: Sf9 (baculovirus, pFastBac1)
Source text: as §1, §2, §4

[8] = target: T8, PDE9A (Homo sapiens, UniProt O76083); assay: PDE enzyme assay using [3H]cGMP as substrate, PDE9A; settings: [3H]cGMP 20 nM; enzyme 1 nM; read-out: IC50 (nM) of Example 1, PDE9A
T8 construct: full-length human PDE1A (NP_001003683.1), PDE1C (NP_005011.1), PDE5A (NP_001074.2), PDE7B (NP_061818.1) and PDE9A (NP_002597.1); His (N); made in house; host or cells: Sf9 (baculovirus, pFastBac1)
Source text: as §1, §2, §4

[9] = target: T9, PDE5A (Homo sapiens, UniProt O76074); assay: PDE enzyme assay using [3H]cGMP as substrate, PDE5A; settings: [3H]cGMP 80 nM; enzyme 0.002 nM; read-out: IC50 (nM) of Example 1, PDE5A
T9 construct: full-length human PDE1A (NP_001003683.1), PDE1C (NP_005011.1), PDE5A (NP_001074.2); His (N); made in house; host or cells: Sf9 (baculovirus, pFastBac1)
Source text: as §1, §2, §4

[10] = target: T10, PDE3A (catalytic domain) (Homo sapiens, UniProt Q14432); assay: PDE enzyme assay using [3H]cAMP as substrate, PDE3A; settings: [3H]cAMP 47 nM, enzyme 0.008 nM, read-out: IC50 (nM) of Example 1, PDE3A
T10 construct: catalytic domain (residue 641-1141) of PDE3A (NP_000912.3); His (C); made in house; host or cells: Sf9 (baculovirus, pFastBac1)
Source text: as §1, §2, §3

[11] = target: T11, PDE1B (Homo sapiens, UniProt Q01064); assay: Ca2+-calmodulin dependent PDE enzyme assay (SPA), PDE1B; settings: [3H]cAMP 47 nM; enzyme 0.074 nM; Ca2+/calmodulin buffer pH 7.5; read-out: IC50 (nM) of Example 1, PDE 1B
T11 construct: full-length human PDE1B (NP_000915.1); His (C); made in house; host or cells: Sf9 (pIEX4)
Source text: as §5
as §2, with “equation. […]” for “equation.”

[12] = target: T12, PDE7B (Homo sapiens, UniProt Q9NP56); assay: PDE enzyme assay using [3H]cAMP as substrate, PDE7B; settings: [3H]cAMP 47 nM; enzyme 0.5 nM; read-out: IC50 (nM) of Example 1, PDE7B
T12 construct: full-length human PDE1A (NP_001003683.1), PDE1C (NP_005011.1), PDE5A (NP_001074.2), PDE7B (NP_061818.1); His (N); made in house; host or cells: Sf9 (baculovirus, pFastBac1)
Source text: as §1, §2, §3

[13] = target: T13, PDE4D (Homo sapiens, UniProt Q08499); assay: PDE enzyme assay using [3H]cAMP as substrate, PDE4D; settings: [3H]cAMP 47 nM; enzyme 0.021 nM; read-out: IC50 (nM) of Example 1, PDE4D
T13 construct: full-length human PDE4D (NP_006194.2); His (C); made in house; host or cells: Sf9 (baculovirus, pFastBac1)
Source text: as §1, §2, §3

T12 sequence (Q9NP56 whole entry): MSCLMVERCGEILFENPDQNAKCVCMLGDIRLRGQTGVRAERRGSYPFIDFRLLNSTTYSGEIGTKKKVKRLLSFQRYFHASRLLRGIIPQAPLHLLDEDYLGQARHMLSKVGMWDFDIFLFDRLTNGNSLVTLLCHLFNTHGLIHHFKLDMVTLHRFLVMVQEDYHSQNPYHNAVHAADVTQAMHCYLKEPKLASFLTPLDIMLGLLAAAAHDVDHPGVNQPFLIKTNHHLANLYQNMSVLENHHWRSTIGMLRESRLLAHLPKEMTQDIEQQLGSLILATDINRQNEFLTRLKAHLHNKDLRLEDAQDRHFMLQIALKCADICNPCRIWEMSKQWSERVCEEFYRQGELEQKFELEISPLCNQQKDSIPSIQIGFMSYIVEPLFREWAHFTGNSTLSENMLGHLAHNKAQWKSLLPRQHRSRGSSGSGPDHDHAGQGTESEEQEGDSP
T13 sequence (Q08499 1-673 isoform Q08499-2): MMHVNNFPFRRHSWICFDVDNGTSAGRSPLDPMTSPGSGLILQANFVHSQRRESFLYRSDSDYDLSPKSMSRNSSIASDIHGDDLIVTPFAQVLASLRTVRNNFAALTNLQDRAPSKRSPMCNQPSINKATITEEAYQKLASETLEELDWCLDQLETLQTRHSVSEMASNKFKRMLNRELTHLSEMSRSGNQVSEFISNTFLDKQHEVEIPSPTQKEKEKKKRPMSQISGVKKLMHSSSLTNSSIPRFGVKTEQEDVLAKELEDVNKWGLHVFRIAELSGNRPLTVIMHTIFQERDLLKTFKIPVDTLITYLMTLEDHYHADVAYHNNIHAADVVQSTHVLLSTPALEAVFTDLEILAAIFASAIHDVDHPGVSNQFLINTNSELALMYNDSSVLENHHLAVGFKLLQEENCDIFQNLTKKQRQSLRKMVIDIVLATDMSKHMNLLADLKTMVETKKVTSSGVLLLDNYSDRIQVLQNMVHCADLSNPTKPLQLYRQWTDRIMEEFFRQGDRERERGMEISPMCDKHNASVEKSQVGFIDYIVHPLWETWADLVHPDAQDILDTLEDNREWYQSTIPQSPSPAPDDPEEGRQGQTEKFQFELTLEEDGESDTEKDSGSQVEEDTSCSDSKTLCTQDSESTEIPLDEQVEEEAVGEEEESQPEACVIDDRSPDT
T2 sequence (P16499 whole entry): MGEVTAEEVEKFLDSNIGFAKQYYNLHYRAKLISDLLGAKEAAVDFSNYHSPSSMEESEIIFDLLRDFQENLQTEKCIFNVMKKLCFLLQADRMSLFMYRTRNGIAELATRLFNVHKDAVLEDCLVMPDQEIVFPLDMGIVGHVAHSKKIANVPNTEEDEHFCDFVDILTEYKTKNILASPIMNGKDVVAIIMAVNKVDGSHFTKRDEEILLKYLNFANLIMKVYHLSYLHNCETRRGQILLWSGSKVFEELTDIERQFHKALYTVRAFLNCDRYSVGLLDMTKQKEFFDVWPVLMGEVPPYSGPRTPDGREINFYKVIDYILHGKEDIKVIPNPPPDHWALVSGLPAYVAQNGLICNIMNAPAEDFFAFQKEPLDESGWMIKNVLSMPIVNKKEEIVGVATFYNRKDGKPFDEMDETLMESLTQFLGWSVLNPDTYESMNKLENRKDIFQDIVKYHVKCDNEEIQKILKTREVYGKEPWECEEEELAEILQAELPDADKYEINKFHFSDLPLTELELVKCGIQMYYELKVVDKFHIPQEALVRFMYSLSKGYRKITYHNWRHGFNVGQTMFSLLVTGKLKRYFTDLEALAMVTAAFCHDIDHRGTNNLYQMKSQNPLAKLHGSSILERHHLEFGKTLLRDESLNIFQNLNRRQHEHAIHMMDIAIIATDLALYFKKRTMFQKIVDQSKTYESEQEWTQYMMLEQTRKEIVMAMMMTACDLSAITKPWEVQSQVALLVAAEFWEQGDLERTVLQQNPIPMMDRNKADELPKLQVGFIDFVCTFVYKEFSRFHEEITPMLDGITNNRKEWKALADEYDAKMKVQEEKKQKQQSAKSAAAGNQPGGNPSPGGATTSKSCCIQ
T2 sequence (P35913 1-853 isoform P35913-2): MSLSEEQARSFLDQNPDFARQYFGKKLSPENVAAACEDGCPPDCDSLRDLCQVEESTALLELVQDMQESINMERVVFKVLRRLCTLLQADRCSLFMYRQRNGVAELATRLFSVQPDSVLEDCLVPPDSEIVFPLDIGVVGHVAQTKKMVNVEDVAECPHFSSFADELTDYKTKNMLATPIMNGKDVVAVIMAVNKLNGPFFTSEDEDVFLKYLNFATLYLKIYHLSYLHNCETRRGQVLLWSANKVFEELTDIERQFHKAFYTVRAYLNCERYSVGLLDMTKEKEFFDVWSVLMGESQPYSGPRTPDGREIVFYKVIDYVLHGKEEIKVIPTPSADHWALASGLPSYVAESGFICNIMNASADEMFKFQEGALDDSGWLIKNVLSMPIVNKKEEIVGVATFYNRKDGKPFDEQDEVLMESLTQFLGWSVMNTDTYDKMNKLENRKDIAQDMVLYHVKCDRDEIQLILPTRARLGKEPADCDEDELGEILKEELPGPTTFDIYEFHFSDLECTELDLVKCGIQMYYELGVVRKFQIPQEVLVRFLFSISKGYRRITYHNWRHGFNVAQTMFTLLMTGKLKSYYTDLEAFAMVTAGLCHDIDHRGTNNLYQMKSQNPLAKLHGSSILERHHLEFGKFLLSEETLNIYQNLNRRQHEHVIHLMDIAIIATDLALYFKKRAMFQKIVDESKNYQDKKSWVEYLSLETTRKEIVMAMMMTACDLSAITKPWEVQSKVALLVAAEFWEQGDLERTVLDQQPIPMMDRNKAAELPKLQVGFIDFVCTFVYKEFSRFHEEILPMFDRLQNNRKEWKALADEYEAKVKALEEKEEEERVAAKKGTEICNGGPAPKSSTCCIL
T6 sequence (O00408 whole entry): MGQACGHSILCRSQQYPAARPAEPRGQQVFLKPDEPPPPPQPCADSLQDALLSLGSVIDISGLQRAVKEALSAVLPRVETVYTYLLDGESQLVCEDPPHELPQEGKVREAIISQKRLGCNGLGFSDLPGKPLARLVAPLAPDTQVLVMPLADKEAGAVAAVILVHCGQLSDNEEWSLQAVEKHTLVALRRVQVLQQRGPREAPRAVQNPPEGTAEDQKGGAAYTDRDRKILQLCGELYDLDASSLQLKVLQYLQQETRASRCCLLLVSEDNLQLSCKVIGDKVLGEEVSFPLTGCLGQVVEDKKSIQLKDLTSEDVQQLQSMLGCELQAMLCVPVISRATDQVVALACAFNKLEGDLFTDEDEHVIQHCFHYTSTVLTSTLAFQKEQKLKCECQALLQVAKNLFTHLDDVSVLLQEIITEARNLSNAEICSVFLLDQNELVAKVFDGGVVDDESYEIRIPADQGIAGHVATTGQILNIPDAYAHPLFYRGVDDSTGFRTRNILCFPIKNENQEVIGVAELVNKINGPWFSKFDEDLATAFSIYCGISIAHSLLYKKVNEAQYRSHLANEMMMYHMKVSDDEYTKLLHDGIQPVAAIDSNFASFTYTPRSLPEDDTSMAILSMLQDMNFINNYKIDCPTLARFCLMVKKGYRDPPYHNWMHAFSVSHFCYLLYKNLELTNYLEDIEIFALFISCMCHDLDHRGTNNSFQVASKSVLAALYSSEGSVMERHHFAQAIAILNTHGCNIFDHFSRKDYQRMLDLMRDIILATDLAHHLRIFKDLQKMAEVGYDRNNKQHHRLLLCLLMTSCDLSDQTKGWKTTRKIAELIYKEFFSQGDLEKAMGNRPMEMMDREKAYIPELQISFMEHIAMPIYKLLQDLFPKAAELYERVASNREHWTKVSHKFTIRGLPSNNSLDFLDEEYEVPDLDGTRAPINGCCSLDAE
T10 sequence (Q14432 641-1141): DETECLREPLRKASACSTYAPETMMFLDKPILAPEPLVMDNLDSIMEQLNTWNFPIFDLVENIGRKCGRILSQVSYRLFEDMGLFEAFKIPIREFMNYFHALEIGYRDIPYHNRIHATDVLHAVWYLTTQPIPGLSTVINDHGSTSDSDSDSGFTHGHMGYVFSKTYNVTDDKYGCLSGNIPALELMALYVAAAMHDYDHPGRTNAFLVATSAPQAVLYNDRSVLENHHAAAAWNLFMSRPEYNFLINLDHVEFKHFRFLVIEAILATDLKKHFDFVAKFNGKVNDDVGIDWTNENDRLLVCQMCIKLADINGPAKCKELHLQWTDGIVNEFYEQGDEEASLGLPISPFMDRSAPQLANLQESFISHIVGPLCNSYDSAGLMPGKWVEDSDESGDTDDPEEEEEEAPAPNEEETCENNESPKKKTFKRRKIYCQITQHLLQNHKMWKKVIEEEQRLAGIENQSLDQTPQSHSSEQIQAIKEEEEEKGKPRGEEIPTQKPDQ
T8 sequence (O76083 whole entry): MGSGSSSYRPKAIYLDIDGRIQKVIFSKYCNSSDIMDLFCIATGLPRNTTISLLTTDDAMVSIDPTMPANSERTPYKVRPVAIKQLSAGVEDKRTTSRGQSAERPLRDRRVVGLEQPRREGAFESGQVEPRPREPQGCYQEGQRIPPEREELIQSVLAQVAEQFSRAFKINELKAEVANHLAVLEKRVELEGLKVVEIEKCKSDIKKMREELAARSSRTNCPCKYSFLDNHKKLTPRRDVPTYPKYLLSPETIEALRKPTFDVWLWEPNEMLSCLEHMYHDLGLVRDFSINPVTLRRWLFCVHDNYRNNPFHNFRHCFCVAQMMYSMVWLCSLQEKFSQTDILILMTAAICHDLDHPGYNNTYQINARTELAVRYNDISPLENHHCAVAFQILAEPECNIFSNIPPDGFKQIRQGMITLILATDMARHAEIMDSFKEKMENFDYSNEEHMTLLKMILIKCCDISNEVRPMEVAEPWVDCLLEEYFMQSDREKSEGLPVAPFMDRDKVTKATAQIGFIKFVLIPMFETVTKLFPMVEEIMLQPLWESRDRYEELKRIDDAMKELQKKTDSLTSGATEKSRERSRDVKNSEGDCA

IC50 [1]: > 10000 nM
IC50 [2]: > 10000 nM
IC50 [3]: 3.41 nM
IC50 [4]: > 10000 nM
IC50 [5]: 3.05 nM
IC50 [6]: > 10000 nM
IC50 [7]: 2970 nM
IC50 [8]: > 10000 nM
IC50 [9]: > 10000 nM
IC50 [10]: > 100000 nM
IC50 [11]: 4.91 nM
IC50 [12]: 2180 nM
IC50 [13]: 7060 nM
SMILES: O=c1c2nnc(C3(C4CC4)CC3)n2c2c(n1CC1CC1)CCCC2 [Example 1, 1-(1-cyclopropylcyclopropyl)-5-(cyclopropylmethyl)-6,7,8,9-tetrahydro-[1,2,4]triazolo[4,3-a]quinoxalin-4-one]
